We go through one molecule from article PMC4179164, “Ophiobolin A from Bipolaris oryzae Perturbs Motility and Membrane Integrities of Porcine Sperm and Induces Cell Death on Mammalian Somatic Cell Lines” (Toxins, 2014).

In series [1] the test system is boar spermatozoa. The series is described as follows: Shivering tail beating induction in exposed sperm cells. Format: cell-based. How it is done:
This phenomenon may indicate that the cell still produce ATP and NADH in the cytoplasm after the OPA treatment, which differs from the effect caused by cation channel forming alamethicin, which depletes the sperm cells from motility, plasma membrane integrity as well as NADH and ATP production at similar concentrations. To confirm the effect of OPA on the plasma membrane permeability, the viability staining with propidium iodide (PI) and calcein-AM was performed after one day incubation at room temperature, (similar conditions as the JC-1 staining) where the EC50 value appeared at 1.6 μg mL^−1, over twice the concentrations that depolarized the mitochondria (Table 1).
Microscopic area containing shivering sperm cell is enlarged at top right of the picture.

The subject of series [2] is boar spermatozoa. The series is described as follows: Dissipation of mitochondrial membrane potential (ΔΨm), JC-1 staining. Format: cell-based. As to the method:
The membrane-permeable 5,5',6,6'-tetrachloro-1,1',3,3'-tetraethylbenzimidazolylcarbocyanine iodide (JC-1) dye is widely used in apoptosis studies to monitor mitochondrial health. […] Therefore, the loss of ΔΨm was seen as decrease in orange fluorescence. In our cases, the staining for […] with JC-1 at 37 °C was enough to get the energized mitochondria stained orange and the plasma membrane green. This short staining was empirically optimized for getting the most reproducible differences between vehicle and toxin exposed sperm cells in Hoornstra et al.. After 2 min incubation, OPA completely depolarized the mitochondrial membrane of the sperm cells at the concentration of 1.25 μg mL^−1 and the exposed cells have already lost approximately 50% of their bright fluorescing mitochondria at the concentration of 500 ng mL^−1 (Figure 3, Table 1).
The dissipation of the ΔΨm on static cells at room temperature was visualized by 5,5',6,6'-tetrachloro-1,1',3,3'-tetraethylbenzimidazolylcarbocyanine iodide (JC-1) (Molecular Probes, Eugene, OR, USA) staining according to Hoornstra et al. with minor modifications as follows: 200 μL of the boar semen exposed with the final OPA concentration of 2.5 μg mL^−1, 1.25 μg mL^−1, 0.5 μg mL^−1 and 0.125 μg mL^−1 was incubated at 37 °C for 2 min, stained with 0.3 μL of JC-1 (1 mg mL^−1 in DMSO) followed by another 2 min at 37 °C and viewed using an epifluorescence microscope (Eclipse E600, Nikon, Tokyo, Japan). All assays (PI + CAM and JC-1 staining) were performed in triplicate and for each sample five microscopic fields containing ca. 20 cells were inspected.

Series [3] in a line: Cell membrane permeability assay on motile sperm cells (PI staining). Format: cell-based, boar. The settings on record: boar (pig), motile boar spermatozoa (commercial extended boar semen); at 800 ng mL^−1 to 1600 ng mL^−1, 37 °C, 2 h. How it is done:
(§1) To test the effect of OPA exposure on sperm cells in physiological conditions (swimming at 37 °C) the plasma membrane disruption on motile sperm cells was measured with the viability PI stain, where the loss of plasma membrane integrity was detected as appearance of red color stained nuclei in the damaged cells. In this assay, sperm cells were exposed to OPA at 37 °C and motility of the exposed sperm cells was induced and maintained for 2 h.
(§2) Cell membrane permeability assay on motile sperm cells was inspected by staining with PI (Molecular Probes, Eugene, OR, USA) in sperm cells induced to swim by shaking at 37 °C. One hundred and fifty μL aliquots of commercial extended boar semen with a density of 27 × 10^6 sperms mL^−1 were pipetted into microtiter plate wells and serially diluted methanolic solution of OPA were added in the concentration range of 200 ng mL^−1 to 4 μg mL^−1 including 6 levels and an additional methanol blank, and pre-incubated for 2 h on orbital shaker (Innova 5000 new Brunswick Scientific, Enfield, CT, USA) (160 rpm) at 37 °C. Four parallel measurements were done for each dilution. One ml PI solution (1 mg mL^−1 in Dulbeco’s phosphate buffered saline) was mixed with 3 mL of […] Dulbeco’s phosphate buffered saline. One hundred and fifty μL of this stain mixture was added to 150 μL of exposed boar semen. This suspension was incubated for 15 min at 37 °C in dark and measured using a microplate reader (Fluoroskan Ascent, Thermo Scientific, Vantaa, Finland) at excitation and emission wavelengths of 544 nm and 600 nm, respectively. For observing plasma membrane damage by PI staining frozen-thawed semen was used as a positive control (for mortality of 100%) representing the maximal fluorescence emitted by the cells permeable to PI and Dulbeco’s phosphate buffered saline was applied as background control (blank). Loss of viability in the sample was calculated as described in Alm et al.. The frozen sample represented 100% loss of viability. The assay was calibrated with triclosan (Sigma Chemical Co., St. Louis, MO, USA), in 5 parallel tests, the EC50 was 2 μg mL^−1 (SD ± 0.6). Cell membrane permeability assay on static sperm cells at room temperature was carried out by viability staining with PI and calcein-AM (Molecular Probes, Eugene, OR, USA) according to Hoornstra et al. in same concentration range and levels described above.

Series [4] deals with boar spermatozoa. The series is described as above. Format: cell-based. The settings on record: for EC50: Spermatozoa. As to the method:
as §1, §2

The test system of series [5] is human umbilical vein endothelial cells (HUVECs). The settings on record: cited from earlier work.

As usually defined, the EC50 is the midpoint of the concentration-response curve. A word on the viability: it is a per cent measure of how many cells are alive, often set against a control. Low values mean a greater loss of cells, high ones better survival.

Converted amounts (≈) assume the structure as drawn.

For `CC(C)=C[C@H]1C[C@H](C)[C@]2(CC[C@]3(C)C[C@H]4[C@H](C(=O)C[C@@]4(C)O)/C(C=O)=C\C[C@H]32)O1` [OPA, ophiobolin A], the EC50 in the series with boar spermatozoa [1] (Spermatozoa, read-out: Toxic endpoint EC50, Shivering tail beating induction) is 0.5 µg/mL (≈ 1.25 µM); in the series on boar spermatozoa [2] (Spermatozoa, read-out: Toxic endpoint EC50, Dissipation of ΔΨm) it was 0.5 µg/mL (≈ 1.25 µM); with boar spermatozoa [4] (2 h, read-out: Toxic endpoint EC50, Permeability to PI on motile cells), 1.6 µg/mL (≈ 3.99 µM); with boar spermatozoa [4] (37 °C, motility maintained for 2 h, read-out: EC50, loss of plasma membrane integrity (PI) on motile sperm cells), 0.8 to 1.6 µg/mL (≈ 2 to 3.99 µM). For the same molecule, the “Concentration inducing shivering tail beating with depolarisation of mitochondria” value in the series with boar spermatozoa [1] (exposure at room temperature) is under 1 µg/mL. The “Effect on JC-1 mitochondrial fluorescence” value in the series on boar spermatozoa [2] (125 ng mL^−1 OPA, JC-1 staining) is listed as “minimal difference compared to the untreated control”. Further, the “Loss of bright fluorescing mitochondria” value in the series on boar spermatozoa [2] (500 ng mL^−1 OPA, JC-1 staining) is “approximately 50%”. Besides, the “Concentration completely depolarizing the mitochondrial membrane of the sperm cells” value in the series with boar spermatozoa [2] (JC-1 staining, 2 min incubation at 37 °C) was 1.25 µg/mL. Further, the viability at 2 h in series [3] lay in the range of 38 to 73%. Besides, in the series with boar spermatozoa [4] (motile at 37 °C, after 2 h), the “Concentration lethal to the sperm cells (disrupting the plasma membrane)” value is recorded as “below 2000 ng/mL”. Further, the “Concentration inducing lethal damage (loss of plasma membrane integrity)” value in the series with boar spermatozoa [4] (swimming at 37 °C, short period) is under 1 µg/mL. In series [5], the “IC50, reduction in the amount of viable cells” value was 32 µg/mL.
